Test results published in US20090325957A1, “MORPHOLINO PYRIMIDINE DERIVATIVES USEFUL IN THE TREATMENT OF PROLIFERATIVE DISORDERS” (ASTRAZENECA AB, priority 2006, published 2009).
Values joined by “and” are separate entries in the source; they are usually repeats but may differ in a detail not shown here. Equal entries are not always repeated. Where two headings read alike, the source gives them in different places.

Target: recombinant mTOR (Homo sapiens, UniProt P42345)
Test: In vitro mTOR kinase assay (AlphaScreen), Test (a)
Type: biochemical
Procedure: (a) In Vitro mTOR Kinase Assay
The assay used AlphaScreen technology (Gray et al., Analytical Biochemistry, 2003, 313: 234-245) to determine the ability of test compounds to inhibit phosphorylation by recombinant mTOR.
The HEK293 FLAG-tagged mTOR (1362-2549) stable cell line was routinely maintained at 37° C. with 5% CO2 up to a confluency of 70-90% in Dulbecco's modified Eagle's growth medium (DMEM; Invitrogen Limited, Paisley, UK Catalogue No. 41966-029) containing 10% heat-inactivated foetal calf serum (FCS; Sigma, Poole, Dorset, UK, Catalogue No. F0392), 1% L-glutamine (Gibco, Catalogue No. 25030-024) and 2 mg/ml Geneticin (G418 sulfate; Invitrogen Limited, UK Catalogue No. 10131-027). Following expression in the mammalian HEK293 cell line, expressed protein was purified using the FLAG epitope tag using standard purification techniques.
Test compounds were prepared as 10 mM stock solutions in DMSO and diluted into water as required to give a range of final assay concentrations. Aliquots (2 μl) of each compound dilution were placed into a well of a Greiner 384-well low volume (LV) white polystyrene plate (Greiner Bio-one).
Control wells that produced a maximum signal corresponding to maximum enzyme activity were created by using 5% DMSO instead of test compound. […] These assay solutions were incubated for 2 hours at room temperature.
Each reaction was stopped by the addition of 10 μl of a mixture of EDTA (50 mM), bovine serum albumin (BSA; 0.5 mg/mL) and Tris-HCl pH7.4 buffer (50 mM) containing
p70 S6 Kinase (T389) 1A5 Monoclonal Antibody (Cell Signalling Technology, Catalogue No. 9206B) and AlphaScreen Streptavidin donor and Protein A acceptor beads (200 ng; Perkin Elmer, Catalogue No. 6760002B and 6760137R respectively) were added and the assay plates were left for about 20 hours at room temperature in the dark. The resultant signals arising from laser light excitation at 680 nm were read using a Packard Envision instrument.
Phosphorylated biotinylated peptide is formed in situ as a result of mTOR mediated phosphorylation. The phosphorylated biotinylated peptide that is associated with AlphaScreen Streptavidin donor beads forms a complex with the p70 S6 Kinase (T389) 1A5 Monoclonal Antibody that is associated with Alphascreen Protein A acceptor beads. Upon laser light excitation at 680 nm, the donor bead: acceptor bead complex produces a signal that can be measured. Accordingly, the presence of mTOR kinase activity results in an assay signal. In the presence of an mTOR kinase inhibitor, signal strength is reduced.
mTOR enzyme inhibition for a given test compound was expressed as an IC50 value.

[1] = average value, read-out: Test (a) average IC50

Sequence of recombinant mTOR (P42345 1362-2549): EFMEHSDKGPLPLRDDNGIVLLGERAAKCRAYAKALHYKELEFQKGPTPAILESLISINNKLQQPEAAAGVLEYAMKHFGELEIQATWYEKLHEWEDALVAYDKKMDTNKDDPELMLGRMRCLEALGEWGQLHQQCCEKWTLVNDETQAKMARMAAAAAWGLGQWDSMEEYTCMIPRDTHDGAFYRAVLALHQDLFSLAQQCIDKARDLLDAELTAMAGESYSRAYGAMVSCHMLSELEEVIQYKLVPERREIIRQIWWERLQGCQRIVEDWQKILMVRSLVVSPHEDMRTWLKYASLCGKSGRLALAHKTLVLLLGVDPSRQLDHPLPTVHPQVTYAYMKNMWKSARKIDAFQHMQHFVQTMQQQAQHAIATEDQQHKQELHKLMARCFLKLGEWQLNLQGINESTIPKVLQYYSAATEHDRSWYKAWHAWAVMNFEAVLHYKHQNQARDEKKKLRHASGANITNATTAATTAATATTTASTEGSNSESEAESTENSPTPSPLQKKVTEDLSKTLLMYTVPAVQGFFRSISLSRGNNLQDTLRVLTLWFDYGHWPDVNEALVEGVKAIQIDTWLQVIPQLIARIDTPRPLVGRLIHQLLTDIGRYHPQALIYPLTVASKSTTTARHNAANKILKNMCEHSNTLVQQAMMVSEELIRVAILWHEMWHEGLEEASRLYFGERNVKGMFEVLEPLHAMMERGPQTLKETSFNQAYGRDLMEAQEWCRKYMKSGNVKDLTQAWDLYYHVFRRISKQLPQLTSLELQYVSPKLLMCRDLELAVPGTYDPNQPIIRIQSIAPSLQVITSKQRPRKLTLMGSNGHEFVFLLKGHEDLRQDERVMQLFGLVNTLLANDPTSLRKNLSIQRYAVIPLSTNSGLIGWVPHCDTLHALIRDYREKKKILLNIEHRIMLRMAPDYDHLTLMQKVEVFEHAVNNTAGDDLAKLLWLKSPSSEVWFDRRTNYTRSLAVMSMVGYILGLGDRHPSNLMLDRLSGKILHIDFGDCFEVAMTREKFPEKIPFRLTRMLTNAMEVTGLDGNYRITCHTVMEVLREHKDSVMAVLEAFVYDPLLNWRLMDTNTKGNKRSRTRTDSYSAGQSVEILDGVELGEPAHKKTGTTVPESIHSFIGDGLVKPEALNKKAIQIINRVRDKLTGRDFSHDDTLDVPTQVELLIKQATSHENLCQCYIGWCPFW

| IC50 [1] [µM] | IC50 (single values, measured on three occasions, read-out: IC50 versus mTOR kinase) | Structure (SMILES) |
| --- | --- | --- |
| 5 | – | CS(=O)(=O)Cc1cc(N2CCOCC2)nc(-c2ccc(NS(C)(=O)=O)c(CO)c2)n1 [Example 1, N-[2-(Hydroxymethyl)-4-[4-(methylsulfonylmethyl)-6-morpholin-4-yl-pyrimidin-2-yl]phenyl]methanesulfonamide] |
| 6.8 | – | CS(=O)(=O)Cc1cc(N2CCOCC2)nc(-c2ccc(CNS(C)(=O)=O)cc2)n1 [Example 2, N-[[4-[4-(Methylsulfonylmethyl)-6-morpholin-4-yl-pyrimidin-2-yl]phenyl]methyl]methanesulfonamide] |
| 0.88 | – | CS(=O)(=O)Cc1cc(N2CCOCC2)nc(-c2ccc(NS(=O)(=O)C3CC3)cc2)n1 [Example 3, N-[4-[4-(Methylsulfonylmethyl)-6-morpholin-4-yl-pyrimidin-2-yl]phenyl]cyclopropanesulfonamide] |
| 1.4 | – | CCS(=O)(=O)Nc1ccc(-c2nc(CS(C)(=O)=O)cc(N3CCOCC3)n2)cc1 [Example 3a, N-[4-[4-(methylsulfonylmethyl)-6-morpholin-4-yl-pyrimidin-2-yl]phenyl]ethanesulfonamide] |
| 4 | – | CCCS(=O)(=O)Nc1ccc(-c2nc(CS(C)(=O)=O)cc(N3CCOCC3)n2)cc1 [Example 3b, N-[4-[4-(methylsulfonylmethyl)-6-morpholin-4-yl-pyrimidin-2-yl]phenyl]propane-1-sulfonamide] |
| 6 | – | CCCCS(=O)(=O)Nc1ccc(-c2nc(CS(C)(=O)=O)cc(N3CCOCC3)n2)cc1 [Example 3c, N-[4-[4-(methylsulfonylmethyl)-6-morpholin-4-yl-pyrimidin-2-yl]phenyl]butane-1-sulfonamide] |
| 7.1 | – | CS(=O)(=O)Cc1cc(N2CCOCC2)nc(-c2ccc(NS(=O)(=O)Cc3ccc(F)cc3)cc2)n1 [Example 3d, 1-(4-fluorophenyl)-N-[4-[4-(methylsulfonylmethyl)-6-morpholin-4-yl-pyrimidin-2-yl]phenyl]methanesulfonamide] |
| 2.6 | 3.32 µM and 2.49 µM and 2.25 µM | CS(=O)(=O)Cc1cc(N2CCOCC2)nc(-c2ccc(NS(C)(=O)=O)cc2)n1 [Example 4, N-[4-[4-(Methylsulfonylmethyl)-6-morpholin-4-yl-pyrimidin-2-yl]phenyl]methanesulfonamide] |
| 4.5 | – | C[C@H]1COCCN1c1cc(CS(C)(=O)=O)nc(-c2ccc(CNS(C)(=O)=O)cc2)n1 [Example 5, N-[[4-[4-[(3S)-3-Methylmorpholin-4-yl]-6-(methylsulfonylmethyl)pyrimidin-2-yl]phenyl]methyl]methanesulfonamide] |
| 1 | – | C[C@H]1COCCN1c1cc(CS(C)(=O)=O)nc(-c2ccc(NS(C)(=O)=O)cc2)n1 [Example 6, N-[4-[4-[(3S)-3-Methylmorpholin-4-yl]-6-(methylsulfonylmethyl)pyrimidin-2-yl]phenyl]methanesulfonamide] |
